Results as given in PubChem BioAssay AID248 (DTP/NCI, 2004).
Several values for one entry are separate records, joined by “and”; a condition that tells them apart may be missing. Equal entries are not always repeated. Toxic doses and inconclusive results are not listed.

System: L1210 leukemia ip in BDF1 mice, survival T/C
Assay: NCI In Vivo Anticancer Drug Screen. Data for tumor model L1210 Leukemia (intraperitoneal) in B6D2F1 (BDF1) mice
Conditions: endpoint: mean survival time, higher = longer survival
Outline: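 Transplantable tumor model; survival measured in treated vs vehicle control mice. Value = treated/control.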

[1] = dose: 15.0 mg/kg/injection, schedule: Q01DX001 (ip), vehicle: carboxymethylcellulose (CMC)
[2] = dose: 100.0 mg/kg/injection, schedule: Q01DX001 (ip), vehicle: carboxymethylcellulose (CMC)
[3] = dose: 200.0 mg/kg/injection, schedule: Q01DX001 (ip), vehicle: carboxymethylcellulose (CMC)
[4] = dose: 400.0 mg/kg/injection, schedule: Q01DX001 (ip), vehicle: carboxymethylcellulose (CMC)
[5] = dose: 100.0 mg/kg/injection, schedule: Q01DX001 (ip), vehicle: saline
[6] = dose: 200.0 mg/kg/injection, schedule: Q01DX001 (ip), vehicle: saline
[7] = dose: 400.0 mg/kg/injection, schedule: Q01DX001 (ip), vehicle: saline
[8] = dose: 100.0 mg/kg/injection, schedule: Q04DX003 (ip), vehicle: saline with Tween-80
[9] = dose: 200.0 mg/kg/injection, schedule: Q04DX003 (ip), vehicle: saline with Tween-80

COc1cc(C=Nc2cc(Cl)c(Cl)c(Cl)c2)ccc1N(CCCl)CCCl
T/C [1]: 123 % of control | T/C (dose: 30.0 mg/kg/injection, schedule: Q01DX001 (ip), vehicle: carboxymethylcellulose (CMC)): 121 % of control

CN=C(N)c1ccc(N=C(N)c2ccc(C(N)=Nc3ccc(C(N)=NC)cc3)c(Cl)c2)cc1
T/C (dose: 7.5 mg/kg/injection, schedule: Q01DX Z (oral), vehicle: saline): 101 % of control | T/C (dose: 15.0 mg/kg/injection, schedule: Q01DX Z (oral), vehicle: saline): 98 % of control | T/C (dose: 30.0 mg/kg/injection, schedule: Q01DX Z (oral), vehicle: saline): 101 % of control | T/C (dose: 60.0 mg/kg/injection, schedule: Q01DX Z (oral), vehicle: saline): 101 % of control

Nc1ccc2c(c1)/C(=N/O)c1ccccc1-2
T/C [2]: 105 % of control | T/C [3]: 97 % of control | T/C [4]: 100 % of control

CCCCOC(=O)c1ccc(NC(=S)NCCc2ccccc2)cc1
T/C (dose: 100.0 mg/kg/injection, schedule: Q01DX009 (ip), vehicle: Klucel (hydroxypropylcellulose) (HPC)): 103 % of control | T/C (dose: 200.0 mg/kg/injection, schedule: Q01DX009 (ip), vehicle: Klucel (hydroxypropylcellulose) (HPC)): 98 % of control | T/C (dose: 400.0 mg/kg/injection, schedule: Q01DX009 (ip), vehicle: Klucel (hydroxypropylcellulose) (HPC)): 95 % of control

O=Nc1c(O)ccc2ccccc12
T/C (dose: 3.12 mg/kg/injection, schedule: Q01DX009 (ip), vehicle: Klucel (hydroxypropylcellulose) (HPC)): 90 % of control | T/C (dose: 5.0 mg/kg/injection, schedule: Q01DX001 (ip), vehicle: saline): 98 % of control | T/C (dose: 6.25 mg/kg/injection, schedule: Q01DX009 (ip), vehicle: Klucel (hydroxypropylcellulose) (HPC)): 95 % of control | T/C (dose: 10.0 mg/kg/injection, schedule: Q01DX001 (ip), vehicle: saline): 104 % of control | T/C (dose: 12.5 mg/kg/injection, schedule: Q01DX009 (ip), vehicle: Klucel (hydroxypropylcellulose) (HPC)): 92 % of control | T/C (dose: 20.0 mg/kg/injection, schedule: Q01DX001 (ip), vehicle: saline): 95 % of control | T/C (dose: 25.0 mg/kg/injection, schedule: Q01DX001 (ip), vehicle: saline with Tween-80): 94 % of control | T/C (dose: 25.0 mg/kg/injection, schedule: Q01DX009 (ip), vehicle: Klucel (hydroxypropylcellulose) (HPC)): 104 % of control | T/C (dose: 40.0 mg/kg/injection, schedule: Q01DX001 (ip), vehicle: saline): 101 % of control | T/C (dose: 50.0 mg/kg/injection, schedule: Q01DX001 (ip), vehicle: saline with Tween-80): 104 % of control | T/C (dose: 80.0 mg/kg/injection, schedule: Q01DX001 (ip), vehicle: saline): 106 % of control | T/C (dose: 100.0 mg/kg/injection, schedule: Q01DX001 (ip), vehicle: saline with Tween-80): 91 % of control

CC(=O)OC1C2OC3C=C(C)CCC3(CO)C(C)(C1OC(C)=O)C21CO1 (stereo not drawn)
T/C (dose: 0.8 mg/kg/injection, schedule: Q01DX009 (ip), vehicle: other): 107 % of control | T/C (dose: 1.6 mg/kg/injection, schedule: Q01DX009 (ip), vehicle: other): 111 % of control | T/C (dose: 6.4 mg/kg/injection, schedule: Q01DX009 (ip), vehicle: other): 95 % of control

CCCCNCCO
T/C (dose: 25.0 mg/kg/injection, schedule: Q01DX009 (ip), vehicle: saline): 96 % of control | T/C (dose: 50.0 mg/kg/injection, schedule: Q01DX009 (ip), vehicle: saline): 100 % of control | T/C (dose: 100.0 mg/kg/injection, schedule: Q01DX009 (ip), vehicle: saline): 115 % of control

Clc1cccc(Cl)c1/C=N/Nc1nnc(N/N=C/c2c(Cl)cccc2Cl)c2ccccc12
T/C (dose: 50.0 mg/kg/injection, schedule: Q01DX001 (ip), vehicle: saline): 103 % of control | T/C [5]: 100 % of control | T/C [6]: 100 % of control | T/C [7]: 103 % of control

O=C(Nc1cccc([N+](=O)[O-])c1)Oc1ccc(-c2ccccc2)cc1
T/C (dose: 100.0 mg/kg/injection, schedule: Q01DX009 (ip), vehicle: saline with Tween-80): 101 % of control and 103 % of control | T/C (dose: 100.0 mg/kg/injection, schedule: Q04DX002 (ip), vehicle: saline with Tween-80): 97 % of control and 111 % of control | T/C [8]: 93 % of control | T/C (dose: 200.0 mg/kg/injection, schedule: Q01DX009 (ip), vehicle: saline with Tween-80): 100 % of control and 101 % of control | T/C (dose: 200.0 mg/kg/injection, schedule: Q04DX002 (ip), vehicle: saline with Tween-80): 96 % of control and 104 % of control | T/C [9]: 93 % of control | T/C (dose: 400.0 mg/kg/injection, schedule: Q01DX009 (ip), vehicle: saline with Tween-80): 94 % of control | T/C (dose: 400.0 mg/kg/injection, schedule: Q04DX002 (ip), vehicle: saline with Tween-80): 93 % of control and 103 % of control | T/C (dose: 400.0 mg/kg/injection, schedule: Q04DX003 (ip), vehicle: saline with Tween-80): 102 % of control

O=NN(CCCl)C(=O)NC1CCC(CC(=O)O)CC1 (stereo not drawn)
T/C (dose: 3.5 mg/kg/injection, schedule: Q01DX001 (ip), vehicle: Klucel (hydroxypropylcellulose) (HPC)): 114 % of control | T/C (dose: 5.3 mg/kg/injection, schedule: Q01DX001 (ip), vehicle: Klucel (hydroxypropylcellulose) (HPC)): 171 % of control | T/C (dose: 12.0 mg/kg/injection, schedule: Q01DX001 (ip), vehicle: Klucel (hydroxypropylcellulose) (HPC)): 235 % of control and 536 % of control | T/C [1]: 151 % of control and 178 % of control | T/C (dose: 18.0 mg/kg/injection, schedule: Q01DX001 (ip), vehicle: Klucel (hydroxypropylcellulose) (HPC)): 352 % of control and 377 % of control | T/C (dose: 18.0 mg/kg/injection, schedule: Q01DX001 (ip), vehicle: carboxymethylcellulose (CMC)): 403 % of control | T/C (dose: 23.0 mg/kg/injection, schedule: Q01DX001 (ip), vehicle: carboxymethylcellulose (CMC)): 336 % of control and 351 % of control | T/C (dose: 26.0 mg/kg/injection, schedule: Q01DX001 (ip), vehicle: Klucel (hydroxypropylcellulose) (HPC)): 352 % of control and 439 % of control | T/C (dose: 26.0 mg/kg/injection, schedule: Q01DX001 (ip), vehicle: carboxymethylcellulose (CMC)): 454 % of control | T/C (dose: 34.0 mg/kg/injection, schedule: Q01DX001 (ip), vehicle: carboxymethylcellulose (CMC)): 445 % of control and 454 % of control | T/C (dose: 40.0 mg/kg/injection, schedule: Q01DX001 (ip), vehicle: Klucel (hydroxypropylcellulose) (HPC)): 319 % of control and 381 % of control | T/C (dose: 40.0 mg/kg/injection, schedule: Q01DX001 (ip), vehicle: carboxymethylcellulose (CMC)): 418 % of control | T/C (dose: 51.0 mg/kg/injection, schedule: Q01DX001 (ip), vehicle: carboxymethylcellulose (CMC)): 413 % of control and 476 % of control | T/C (dose: 60.0 mg/kg/injection, schedule: Q01DX001 (ip), vehicle: Klucel (hydroxypropylcellulose) (HPC)): 111 % of control and 202 % of control | T/C (dose: 60.0 mg/kg/injection, schedule: Q01DX001 (ip), vehicle: carboxymethylcellulose (CMC)): 102 % of control | T/C (dose: 77.0 mg/kg/injection, schedule: Q01DX001 (ip), vehicle: carboxymethylcellulose (CMC)): 175 % of control and 258 % of control

Cc1n[n+]([O-])c(C)cc1[N+](=O)[O-]
T/C (dose: 100.0 mg/kg/injection, schedule: Q04DX002 (ip), vehicle: Klucel (hydroxypropylcellulose) (HPC)): 112 % of control | T/C (dose: 200.0 mg/kg/injection, schedule: Q04DX002 (ip), vehicle: Klucel (hydroxypropylcellulose) (HPC)): 101 % of control

CC1(CCOCc2ccccc2)NC(=O)N(CCC#N)C1=O (stereo not drawn)
T/C (dose: 50.0 mg/kg/injection, schedule: Q01DX001 (ip), vehicle: carboxymethylcellulose (CMC)): 102 % of control | T/C [2]: 94 % of control | T/C [3]: 94 % of control | T/C [4]: 91 % of control

FC(F)(F)C(Cl)(c1ccc(Cl)cc1)c1ccc(Cl)cc1
T/C (dose: 100.0 mg/kg/injection, schedule: Q04DX003 (sc), vehicle: olive oil, sesame oil, peanut oil): 102 % of control | T/C (dose: 400.0 mg/kg/injection, schedule: Q04DX003 (sc), vehicle: olive oil, sesame oil, peanut oil): 100 % of control

CCCCOC1OCN(C(C)(C)C)CC1(C)C (stereo not drawn)
T/C (dose: 100.0 mg/kg/injection, schedule: Q04DX002 (ip), vehicle: saline): 104 % of control | T/C (dose: 200.0 mg/kg/injection, schedule: Q04DX002 (ip), vehicle: saline): 112 % of control | T/C (dose: 400.0 mg/kg/injection, schedule: Q04DX002 (ip), vehicle: saline): 101 % of control

S=C(Nc1ccccc1)NC1CC2C=CC1CC2 (stereo not drawn)
T/C [5]: 90 % of control | T/C [6]: 92 % of control | T/C [7]: 113 % of control

COc1ccccc1C(=O)C=C(C(F)(F)F)C(F)(F)F
T/C [8]: 95 % of control | T/C [9]: 97 % of control

CCNC(C)(C)C(SS(=O)(=O)O)c1cccs1 (stereo not drawn)
T/C (dose: 100.0 mg/kg/injection, schedule: Q04DX003 (ip), vehicle: water): 109 % of control | T/C (dose: 200.0 mg/kg/injection, schedule: Q04DX003 (ip), vehicle: water): 96 % of control | T/C (dose: 400.0 mg/kg/injection, schedule: Q04DX003 (ip), vehicle: water): 94 % of control
